Results as given in ChEMBL document CHEMBL1201862, “PubChem BioAssay data set” (2004).
Active and inactive are the calls of the source. The rule behind the calls is not given here.

How the values were obtained:
Format in all cases: functional
[1] = biological target: T1, Serine/threonine-protein kinase D3 (Homo sapiens, UniProt O94806);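 note: determined within a kinase panel screen, with PRKCN as the panel member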
T1 sequence (O94806 whole entry): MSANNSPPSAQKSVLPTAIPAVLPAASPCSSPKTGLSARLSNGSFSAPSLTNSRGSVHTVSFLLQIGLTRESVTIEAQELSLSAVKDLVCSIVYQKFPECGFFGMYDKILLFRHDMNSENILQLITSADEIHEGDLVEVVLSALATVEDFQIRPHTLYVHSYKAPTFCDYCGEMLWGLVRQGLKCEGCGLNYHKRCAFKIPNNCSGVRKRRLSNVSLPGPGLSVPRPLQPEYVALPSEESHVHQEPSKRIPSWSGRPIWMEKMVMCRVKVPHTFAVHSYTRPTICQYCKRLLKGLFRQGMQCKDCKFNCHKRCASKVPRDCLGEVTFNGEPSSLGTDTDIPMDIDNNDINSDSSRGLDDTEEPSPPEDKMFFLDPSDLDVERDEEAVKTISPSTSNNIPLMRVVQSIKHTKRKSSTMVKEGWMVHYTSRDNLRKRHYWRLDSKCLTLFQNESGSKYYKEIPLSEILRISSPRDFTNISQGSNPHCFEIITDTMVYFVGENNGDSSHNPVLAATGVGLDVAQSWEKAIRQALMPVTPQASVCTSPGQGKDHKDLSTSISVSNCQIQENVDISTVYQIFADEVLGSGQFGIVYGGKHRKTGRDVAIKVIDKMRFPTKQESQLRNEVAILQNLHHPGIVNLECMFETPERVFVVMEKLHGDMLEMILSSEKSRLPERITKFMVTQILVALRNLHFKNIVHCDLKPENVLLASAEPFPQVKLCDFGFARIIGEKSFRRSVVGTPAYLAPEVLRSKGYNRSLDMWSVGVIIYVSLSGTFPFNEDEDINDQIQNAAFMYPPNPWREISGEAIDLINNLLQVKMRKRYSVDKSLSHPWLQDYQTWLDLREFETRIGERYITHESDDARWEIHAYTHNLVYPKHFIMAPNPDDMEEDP

[2] = biological target: T2, Serine/threonine-protein kinase TAO1 (Homo sapiens, UniProt Q7L7X3)
T2 sequence (Q7L7X3 whole entry): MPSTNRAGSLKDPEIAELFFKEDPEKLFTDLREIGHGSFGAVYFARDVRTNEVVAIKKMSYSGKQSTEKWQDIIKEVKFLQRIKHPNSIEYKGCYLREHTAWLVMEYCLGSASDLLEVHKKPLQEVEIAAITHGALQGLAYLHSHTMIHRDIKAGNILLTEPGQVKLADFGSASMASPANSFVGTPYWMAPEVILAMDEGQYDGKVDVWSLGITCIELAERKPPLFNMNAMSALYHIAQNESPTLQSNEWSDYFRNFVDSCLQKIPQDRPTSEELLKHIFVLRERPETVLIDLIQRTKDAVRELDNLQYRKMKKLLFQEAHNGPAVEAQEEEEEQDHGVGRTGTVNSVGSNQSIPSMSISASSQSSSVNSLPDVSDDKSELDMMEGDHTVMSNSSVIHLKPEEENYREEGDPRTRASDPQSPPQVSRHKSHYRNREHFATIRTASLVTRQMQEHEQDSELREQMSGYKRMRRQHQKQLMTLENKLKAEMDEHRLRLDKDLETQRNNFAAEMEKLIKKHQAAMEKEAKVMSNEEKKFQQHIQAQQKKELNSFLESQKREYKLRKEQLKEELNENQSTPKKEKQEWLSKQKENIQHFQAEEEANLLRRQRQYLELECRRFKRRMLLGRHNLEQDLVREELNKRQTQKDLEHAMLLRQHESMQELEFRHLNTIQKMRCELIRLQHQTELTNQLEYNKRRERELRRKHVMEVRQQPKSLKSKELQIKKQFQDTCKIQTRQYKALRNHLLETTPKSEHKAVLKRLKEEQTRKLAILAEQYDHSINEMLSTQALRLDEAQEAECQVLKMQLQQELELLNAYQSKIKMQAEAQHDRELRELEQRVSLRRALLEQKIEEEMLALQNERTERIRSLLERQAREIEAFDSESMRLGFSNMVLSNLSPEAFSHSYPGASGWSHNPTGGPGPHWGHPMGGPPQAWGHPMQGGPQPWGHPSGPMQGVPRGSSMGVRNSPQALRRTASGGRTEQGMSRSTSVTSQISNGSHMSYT

[3] = biological target: T3, Tyrosine-protein kinase JAK3 (Homo sapiens, UniProt P52333)
T3 sequence (P52333 whole entry): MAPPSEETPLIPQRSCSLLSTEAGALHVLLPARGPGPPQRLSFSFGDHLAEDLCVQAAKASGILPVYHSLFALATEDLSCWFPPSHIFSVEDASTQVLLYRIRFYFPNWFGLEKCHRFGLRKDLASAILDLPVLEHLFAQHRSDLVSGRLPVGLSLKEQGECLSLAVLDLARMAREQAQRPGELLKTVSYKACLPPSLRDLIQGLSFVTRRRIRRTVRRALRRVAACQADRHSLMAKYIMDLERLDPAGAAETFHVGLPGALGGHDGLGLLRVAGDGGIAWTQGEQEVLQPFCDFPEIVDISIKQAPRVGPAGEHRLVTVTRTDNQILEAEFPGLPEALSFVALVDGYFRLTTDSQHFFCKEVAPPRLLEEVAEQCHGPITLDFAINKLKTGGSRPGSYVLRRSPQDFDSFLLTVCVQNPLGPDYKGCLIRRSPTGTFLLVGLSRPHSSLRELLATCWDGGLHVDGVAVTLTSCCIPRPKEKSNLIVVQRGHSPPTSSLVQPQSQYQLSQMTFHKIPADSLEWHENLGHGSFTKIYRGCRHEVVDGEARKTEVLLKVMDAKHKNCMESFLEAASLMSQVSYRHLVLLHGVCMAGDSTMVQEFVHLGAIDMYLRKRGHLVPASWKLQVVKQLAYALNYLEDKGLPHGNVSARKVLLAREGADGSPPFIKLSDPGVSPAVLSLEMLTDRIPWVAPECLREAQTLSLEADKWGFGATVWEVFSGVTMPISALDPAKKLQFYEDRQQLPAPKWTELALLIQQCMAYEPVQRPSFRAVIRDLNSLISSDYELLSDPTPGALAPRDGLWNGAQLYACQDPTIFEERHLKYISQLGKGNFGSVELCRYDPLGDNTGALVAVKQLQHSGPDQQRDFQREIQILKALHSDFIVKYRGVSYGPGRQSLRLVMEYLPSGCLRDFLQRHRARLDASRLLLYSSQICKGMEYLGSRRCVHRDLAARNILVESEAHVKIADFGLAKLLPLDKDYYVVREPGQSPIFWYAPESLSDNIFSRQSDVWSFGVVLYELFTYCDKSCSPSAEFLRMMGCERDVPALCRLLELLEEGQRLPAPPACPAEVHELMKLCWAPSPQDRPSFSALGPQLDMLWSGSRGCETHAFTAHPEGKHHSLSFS

Ki [1] | Ki [2] | Ki [3] | SMILES
1.58 µM (active) | 3.98 µM (active) | > 5.01 µM (inactive) | Cc1ccc(C)c(NC(=O)c2cc(-c3ccco3)nc3ccccc23)c1
0.398 µM (active) | 1 µM (active) | 0.251 µM (active) | COc1ccc(C2=NNc3cccc4c(OC)ccc2c34)cc1OC

SMILES | Ki [1] | Ki [2] | Ki [3]
CN1CCC(c2c(O)cc(O)c3c(=O)cc(-c4ccccc4Cl)oc23)C(O)C1 (centres undefined) | 0.316 µM (active) | 0.794 µM (active) | > 3.98 µM (inactive)
